Measured values taken from patent US20180098969A1, “HODGKIN LYMPHOMA THERAPY” (Purdue Pharmaceutical Products L.P., priority 2016, published 2018).

Experiments:
KMH2 cell line [1] = test: Clonogenic survival in methylcellulose; type: cell-based, human; conditions: lowest doses 0.1 and 0.5 μmol
Method: (§1) In all examples, the human Hodgkin lymphoma-derived cell lines L428, L428-c, KMH2, L591, L540, L1236, HDLM2 and SUP-HD were obtained from Dr Steffen Junker (Aarhus University Denmark). All cell lines were cultured in Gibco RPMI 1640 medium supplemented with Glutamax, 10% FBS and antibiotics at 37° C. […] The immunophenotype, P53 status and MSI characterization of the Hodgkin lymphoma cell lines was determined using anti-CD30, CD15, CD20 and CD14 antibodies.
(§2) This test was performed on four Hodgkin lymphoma cell lines (L428, L428s, KMH2 and L540). Each was cultured with EDO-S101 at doses of 0, 0.1, 0.5, 1, 10 and 20 μmol in DMSO. The cell lines were cultured in methylcellulose (Stem cell Technologies) at a concentration of 10^5/ml at 37° C. and 5% CO2. The surviving fraction was determined by measuring the viability of colonies generated before and after exposure. Only colonies with more than 50 cells were counted. Each data point represents the average and SD from three independent experiments performed in triplicate.

L428 = test: Clonogenic survival in methylcellulose; type: cell-based, human; conditions: very low doses 0.1 and 0.5 μmol
Method: as §1, §2

L428s = test: Clonogenic survival in methylcellulose; type: cell-based, human; conditions: very low doses 0.1 and 0.5 μmol
Method: as §1, §2

KMH2 cell line [2] = test: Mitotic index and chromosomal aberrations; type: cell-based, human
Method: (§3) The mitotic index and chromosomal aberrations for each of the cell lines were evaluated after treatment with either 20 μmol or 10 μmol EDO-S101 in DMSO. Each cell line was cultured at 37° C. in the presence of RPMI 1640 supplemented with 10% FCS and antibiotics. Colcemid (0.1 ug/ml) was added 2 h before harvesting and slides with chromosomes in metaphase were prepared following the standard methanol/acetic acid (3/1, v/v) procedure. The slides were stored at −20° C. until use.
(§4) FISH was performed using a combination of standard procedures from the recommended protocols for chromosome analysis, following telomere and centromere staining, using PNA probes. In all, 100 metaphases were scored per in vitro dose exposure.
(§5) The mitotic index was determined by measurement of the sum of all cells in prophase, metaphase, anaphase and telophase divided by the total number of cells.

[3] = test system: Hodgkin lymphoma cell lines; test: Mitotic index and chromosomal aberrations; type: cell-based, human
Method: as §3, §4, §5

L540 cell line = test: Mitotic index and chromosomal aberrations; type: cell-based, human
Method: as §3, §4, §5

CD14 cells = test: CD14-positive cells by flow cytometry in xenografted mice; type: in vivo, NSG mice
Method: Cells were gated to exclude apoptotic or necrotic cells and sorted into CD30−/CD15− and CD30+ and CD15+/CD30+ fractions by gating on the lowest and highest 5% PE-expressing cells, respectively. Following sorting, the CD30−/CD15− cell fractions were analyzed using a FACScan flow cytometer (Becton Dickinson) and found to be more than 98% pure. For phenotypic analyses of cell lines or sorted cells, cells were prepared as described, and then stained with mouse anti-human CD30-phycoerthrin (PE), CD15-fluorescein isothyocyanate (FITC), CD14-APC-cyanine 7 (Cy7) and CD45-APC (all antibodies from BD PharMingen, San Diego, Calif.). […] Cells were subsequently analysed using a FACS LSRII (Becton Dickinson, Franklin Lakes, N.J.). […]
Novel biomarkers CD68 and CD14 which are expressed by tumour associated macrophages and myeloid derived suppressor cells respectively in the microenvironment have recently been reported to affect the prognosis of Hodgkin lymphoma (Haematologica, 2011 Feb; 96(2): 186-189). The presence of the CD14-positive cells following administration of a single dose of EDO-S101 (60 mg/kg or 80 mg/kg) and after two administrations of EDO-S101 at 60 mg/kg was evaluated using flow cytometry with anti CD14 antibodies.

[4] = test system: Hodgkin lymphoma cell lines (KMH2, HDML2, L540, L1236 and L426); test: IC50 comparison of bendamustine, vorinostat and EDO-S101; type: cell-based, human; conditions: tumour cells of Hodgkin lymphoma
Method: (a) Five Hodgkin lymphoma cell lines (KMH2, HDML2, L540, L1236 and L426) were cultured separately in the presence of bendamustine, vorinostat and EDO-S101 dissolved in DMSO at 37° C. L1236-derived Hodgkin lymphoma cell lines were selected as they have an acquired stable resistance to bendamustine (R100) or an ability to display continuous growth upon extended exposure to sub-lethal concentrations of bendamustine (R25, R50 and R75). A detailed description of the L1236-R Hodgkin lymphoma cell lines is disclosed in De Filippi et al, ASH 2015, Abstract. # 2479. In these tests, the L1236-100R bendamustine resistant strain was used.

With `Cn1c(CCCCCCC(=O)NO)nc2cc(N(CCCl)CCCl)ccc21` [EDO-S101] the clones observed (KMH2 cell line [1]) was “only a few clones”, the clones observed (L428) was “only macrophagic clones being observed” and the clones observed (L428s) was “only macrophagic clones being observed”. The mitotic index (KMH2 cell line [2]) was “very low mitotic index”, the “chromosomal aberrations in metaphase” value (KMH2 cell line [2]; telomere and centromere staining) was “numerous chromosomal aberrations” and the metaphases observed ([3]; 10 μmol) was “only a few metaphases of poor quality”. For the same compound, the metaphases observed ([3]; 20 μmol, any cell line) was “No metaphases were observed”, the “sensitivity in mitotic index assay” value ([3]; all cell lines, 24 h of treatment) was “remarkably high sensitivity” and the mitotic index (L540 cell line) was “very low mitotic index”. The “frequency of CD14 cells” value (CD14 cells; 2×60 mg/kg versus single 80 mg/kg) was “higher frequency following treatment with 2×60 mg/kg than treatment with a single dose of 80 mg/kg”, the “frequency of CD14 cells” value (CD14 cells; treated versus untreated mice) was “significantly higher frequency of CD14 cells in untreated mice compared to treated mice” and the “IC50s compared with those of bendamustine” value [4] was “about ten-fold lower”.
